From patent US4616023A, “Pharmaceutical compositions of 4-(dibenzo-[a,d]cycloalkenyl)piperazine compounds and methods” (Merck & Co., Inc., priority 1985, dated 1986)

Test system: Rat Aorta
Assay: inhibition of calcium induced contraction of vascular smooth muscle (rat aorta segments)
Type: cell-based, male Sprague-Dawley rats
Details: at 10^-7 M, 1.0 mM calcium chloride induced contraction, read-out: Percent Inhibition of Rat Aorta
Method: The property may be observed in a test in which segments of vascular smooth muscle obtained from male Sprague-Dawleyrats are suspended in physiological salt solution in a tissue bath instrumented for recording contractions. After the tissue has been equilibrated, washed in calcium-free physiological salt solution and then depolarized, 1.0 mM calcium chloride is re-added to induce contraction. After the contraction has reached a plateau, tissues are washed and a test compound or vehicle is added to determine the effect achieved by the above cyclic protocol on a second contraction. From measuring the initial contraction as well as the second contraction in the presence of the test compound, the extent of inhibition may be calculated. The results of these tests for representative compounds in the compositions of the present invention are seen in the following table.

Going from `CN1CCN(C2c3ccccc3C=Cc3ccc(Cl)cc32)CC1` (centres unmarked) [1-(3-Chloro-5H-dibenzo[a,d]cyclohepten-5-yl)-4-methylpiperazine] to `CSc1ccc2c(c1)C(N1CCN(C)CC1)c1ccccc1C=C2` (centres unmarked) [1-Methyl-4-(3-methylthio-5H-dibenzo[a,d]cyclohepten-5-yl)piperazine], the inhibition at 0.1 µM falls from 90% to 76%.

Compared with `COc1ccc2c(c1)C(N1CCN(C)CC1)c1ccccc1C=C2` (centres unmarked) [1-(3-Methoxy-5H-dibenzo[a,d]cyclohepten-5-yl)-4-methylpiperazine], `CN1CCN(C2c3ccccc3C=Cc3ccccc32)CC1` [1-(5H-dibenzo[a,d]cyclohepten-5-yl)-4-methylpiperazine] is lower in inhibition at 0.1 µM: 65% for the first, 59% for the second.

Going from `Brc1ccc2c(c1)C(N1CCN(CC=Cc3ccccc3)CC1)c1ccccc1C=C2` (centres unmarked) [1-(3-bromo-5H-dibenzo[a,d]cyclohepten-5-yl)-4-cinnamylpiperazine] to `CCOC(=O)N1CCN(C2c3ccccc3C=Cc3ccccc32)CC1` [Ethyl 4-(5H-Dibenzo[a,d]cyclohepten-5-yl)-1-piperazinecarboxylate], the inhibition at 0.1 µM falls from 41% to 37%.

Compared with `COc1ccc2c(c1)C(N1CCN(C)CC1)c1ccccc1CC2` (centres unmarked) [1-(10,11-Dihydro-3-methoxy-5H-dibenzo[a,d]cyclohepten-5-yl)-4-methylpiperazine], `CN1CCN(C2c3ccccc3CSc3ccccc32)CC1` (centres unmarked) [1-(6,11-Dihydrodibenzo[b,e]thiepin-11-yl)-4-methylpiperazine] is lower in inhibition at 0.1 µM: 36% for the first, 30% for the second.

For `C1=Cc2ccccc2C(N2CCNCC2)c2ccccc21` [1-(5H-Dibenzo[a,d]cyclohepten-5-yl)piperazine], the inhibition at 0.1 µM was 34%.

Same assay, conditions: at 10^-8 M, 1.0 mM calcium chloride induced contraction, read-out: Percent Inhibition of Rat Aorta

First: C(=Cc1ccccc1)CN1CCN(C2c3ccccc3C=Cc3ccccc32)CC1 [1-cinnamyl-4-(5H-dibenzo[a,d]cyclohepten-5-yl)piperazine]
Second: CN1CCN(C2c3ccccc3C=Cc3ccc(Br)cc32)CC1 (centres unmarked) [1-(3-Bromo-5H-dibenzo[a,d]cyclohepten-5-yl)-4-methylpiperazine]
The inhibition at 0.01 µM of the first is higher: 89% for the first, 48% for the second.
